{"source": "patent EP1561465A2", "about": "“Methods of use of fluoroquinolone compounds against bacteria” (LG Life Sciences, Ltd., priority 1999, dated 2001)", "format_in_all_cases": "cell-based", "key": {"[1]": {"system": "Streptococcus pneumoniae", "assay": "MIC by broth microdilution (NCCLS), dried MicroScan panels, clinical isolates 1998-1999", "settings": "for MIC90: Streptococcus pneumoniae"}, "[2]": {"system": "Streptococcus pneumoniae", "assay": "MIC by E-test (broth microdilution for gemifloxacin), 107 pneumococcal carrier isolates, Athens 1998", "settings": "E-test; for MIC Range: in µg/mL (unit assumed); for MIC50 / MIC90: Streptococcus pneumoniae; for MIC50: read-out: MIC50; for MIC90: read-out: MIC90", "description": "Susceptibility testing was performed by agar dilution or epsilometer method (E-test), as recommended by the NCCLS. […] The susceptibility profiles of the strains were assessed using the Epsilometer method (E-test). The isolates were subdivided into two groups according to their penicillin susceptibility patterns (penicillin-susceptible and penicillin-intermediate."}, "[3]": {"system": "Pseudomonas aeruginosa", "assay": "MIC by agar dilution (NCCLS), 322 nosocomial Gram negative isolates, Athens 1998", "settings": "n = 57 isolates"}, "[4]": {"system": "Staphylococcus epidermidis", "assay": "MIC by NCCLS broth microdilution, 1100 Japanese clinical isolates 1997-1998", "settings": "for MIC50 / MIC90: Staphylococcus epidermidis"}, "[5]": {"system": "Providencia rettgeri", "assay": "MIC by NCCLS broth microdilution, 1100 Japanese clinical isolates 1997-1998"}, "[6]": {"system": "Proteus vulgaris", "assay": "MIC by NCCLS broth microdilution, 1100 Japanese clinical isolates 1997-1998"}, "[7]": {"system": "Streptococcus pneumoniae", "assay": "MIC by NCCLS broth microdilution, 1100 Japanese clinical isolates 1997-1998", "settings": "for MIC50 / MIC90 / MIC: Streptococcus pneumoniae; for MIC50: read-out: MIC50; for MIC90: read-out: MIC90; for MIC: Streptococcus pneumoniae quinolone resistant"}, "[8]": {"system": "Proteus mirabilis", "assay": "MIC by NCCLS broth microdilution, 1100 Japanese clinical isolates 1997-1998", "settings": "Proteus mirabilis (n=30)"}, "[9]": {"system": "Salmonella spp.", "assay": "MIC by NCCLS broth microdilution, 1100 Japanese clinical isolates 1997-1998", "settings": "Salmonella spp. (n=29)"}, "[10]": {"system": "P. aeruginosa", "assay": "MIC by two-fold serial agar dilution, quinolone-resistant strains", "settings": "Pseudomonas aeruginosa"}, "[11]": {"settings": "Streptococcus pneumoniae (302 isolates)"}, "[12]": {"settings": "Penicillin-intermediate S. pneumoniae (n = 24)"}, "[13]": {"settings": "Penicillin-susceptible S. pneumoniae (n = 107)"}, "[14]": {"settings": "Staphylococcus epidermidis oxacillin susceptible (n=35)"}, "[15]": {"settings": "Staphylococcus epidermidis oxacillin resistant (n=43)"}, "[16]": {"settings": "Streptococcus pneumoniae amoxicillin resistant (n=40)"}, "[17]": {"settings": "Streptococcus pneumoniae amoxicillin susceptible (n=35)"}, "[18]": {"settings": "Streptococcus pneumoniae erythromycin resistant (n=34)"}, "[19]": {"settings": "Streptococcus pneumoniae erythromycin susceptible (n=11)"}}, "data": [{"smiles": "Cc1c(F)c(N2CCNC(C)C2)cc2c1c(=O)c(C(=O)O)cn2C1CC1", "note": "(stereo not drawn) [Grepafloxacin, grepafloxacin]", "values": [{"measurement": "MIC50", "setting": "[1]; [11]", "value": 0.03, "unit": "µg/mL"}, {"measurement": "MIC Range", "setting": "[1]; [11]", "value": "≤0.015 to 0.25", "unit": "µg/mL"}, {"measurement": "MIC90", "setting": "[1]; Erythromycin-resistant (86)", "value": 0.12, "unit": "µg/mL"}, {"measurement": "MIC90", "setting": "[1]; Erythromycin-sensitive (216)", "value": 0.25, "unit": "µg/mL"}, {"measurement": "MIC90", "setting": "[1]; Penicillin-intermediate (124)", "value": 0.12, "unit": "µg/mL"}, {"measurement": "MIC90", "setting": "[1]; Penicillin-resistant (80)", "value": 0.12, "unit": "µg/mL"}, {"measurement": "MIC90", "setting": "[1]; Penicillin-sensitive (98)", "value": 0.12, "unit": "µg/mL"}, {"measurement": "MIC90", "setting": "[1]; [11]", "value": 0.12, "unit": "µg/mL"}, {"measurement": "MIC Range", "setting": "[2]; [12]", "value": "0.047-0.5"}, {"measurement": "MIC Range", "setting": "[2]; [13]", "value": "0.047-1"}, {"measurement": "MIC50", "setting": "[2]; [12]", "value": 0.19, "unit": "µg/mL"}, {"measurement": "MIC90", "setting": "[2]; [12]", "value": 0.38, "unit": "µg/mL"}, {"measurement": "MIC50", "setting": "[2]; [13]", "value": 0.19, "unit": "µg/mL"}, {"measurement": "MIC90", "setting": "[2]; [13]", "value": 0.38, "unit": "µg/mL"}, {"measurement": "MIC50", "setting": "[3]", "value": 1, "unit": "µg/mL"}, {"measurement": "MIC90", "setting": "[3]", "value": "> 64", "unit": "µg/mL"}]}, {"smiles": "NC1CCN(c2nc3c(cc2F)c(=O)c(C(=O)O)cn3-c2ccc(F)cc2F)C1", "note": "(stereo not drawn) [Tosufloxacin, tosufloxacin]", "values": [{"measurement": "MIC Range", "setting": "[4]; [14]", "value": "0.032 to 16", "unit": "µg/mL"}, {"measurement": "MIC50", "setting": "[4]; [15]", "value": 8, "unit": "µg/mL"}, {"measurement": "MIC90", "setting": "[4]; [15]", "value": "> 16", "unit": "µg/mL"}, {"measurement": "MIC50", "setting": "[4]; [14]", "value": 0.063, "unit": "µg/mL"}, {"measurement": "MIC90", "setting": "[4]; [14]", "value": 4, "unit": "µg/mL"}, {"measurement": "MIC50", "setting": "[5]; Providencia rettgeri", "value": 0.125, "unit": "µg/mL"}, {"measurement": "MIC90", "setting": "[5]; Providencia rettgeri (n=12)", "value": 8, "unit": "µg/mL"}, {"measurement": "MIC Range", "setting": "[5]; Providencia rettgeri (n=12)", "value": "0.063 to 8", "unit": "µg/mL"}, {"measurement": "MIC50", "setting": "[6]; Proteus vulgaris", "value": 0.125, "unit": "µg/mL"}, {"measurement": "MIC Range", "setting": "[6]; Proteus vulgaris (n=25)", "value": "0.063 to 1", "unit": "µg/mL"}, {"measurement": "MIC90", "setting": "[6]; Proteus vulgaris (n=25), read-out: MIC90", "value": 0.5, "unit": "µg/mL"}, {"measurement": "MIC Range", "setting": "[7]; [16]", "value": "0.063 to 4", "unit": "µg/mL"}, {"measurement": "MIC Range", "setting": "[7]; [17]", "value": "0.125 to 2", "unit": "µg/mL"}, {"measurement": "MIC Range", "setting": "[7]; [18]", "value": "0.063 to 4", "unit": "µg/mL"}, {"measurement": "MIC Range", "setting": "[7]; [19]", "value": "0.125 to 0.25", "unit": "µg/mL"}, {"measurement": "MIC50", "setting": "[7]; [16]", "value": 0.25, "unit": "µg/mL"}, {"measurement": "MIC90", "setting": "[7]; [16]", "value": 0.25, "unit": "µg/mL"}, {"measurement": "MIC50", "setting": "[7]; [17]", "value": 0.25, "unit": "µg/mL"}, {"measurement": "MIC90", "setting": "[7]; [17]", "value": 0.5, "unit": "µg/mL"}, {"measurement": "MIC50", "setting": "[7]; [18]", "value": 0.25, "unit": "µg/mL"}, {"measurement": "MIC90", "setting": "[7]; [18]", "value": 0.25, "unit": "µg/mL"}, {"measurement": "MIC50", "setting": "[7]; [19]", "value": 0.25, "unit": "µg/mL"}, {"measurement": "MIC90", "setting": "[7]; [19]", "value": 0.25, "unit": "µg/mL"}, {"measurement": "MIC", "setting": "[7]; strain TMS1", "value": 0.5, "unit": "µg/mL"}, {"measurement": "MIC", "setting": "[7]; strain TMS2", "value": 8, "unit": "µg/mL"}, {"measurement": "MIC Range", "setting": "[8]", "value": "0.063 to 16", "unit": "µg/mL"}, {"measurement": "MIC50", "setting": "[8]; read-out: MIC50", "value": 0.25, "unit": "µg/mL"}, {"measurement": "MIC90", "setting": "[8]; read-out: MIC90", "value": 0.5, "unit": "µg/mL"}, {"measurement": "MIC50", "setting": "[9]", "value": 0.032, "unit": "µg/mL"}, {"measurement": "MIC90", "setting": "[9]", "value": 0.063, "unit": "µg/mL"}, {"measurement": "MIC Range", "setting": "[9]", "value": "0.016 to 0.063", "unit": "µg/mL"}, {"measurement": "MIC", "setting": "[10]", "value": 1, "unit": "µg/mL"}]}]}
